Measured values from ChEMBL document CHEMBL4371024, “Synthesis and characterization of pyridoxine, nicotine and nicotinamide salts of dithiophosphoric acids as antibacterial agents against resistant wound infection” (Bioorg Med Chem, 2019).
≈ marks a conversion by molar mass, not a printed value. Calls of active or inactive are those of the source. No cut-off for these calls is given here.

Assays:
Staphylococcus aureus [1] = assay: Antibacterial activity against Staphylococcus aureus ATCC 29213 after 24 hrs by broth dilution method; type: functional; conditions: ATCC 29213, 24 h
Pseudomonas aeruginosa [2] = assay: Antibacterial activity against Pseudomonas aeruginosa ATCC 27853 after 24 hrs by broth dilution method; type: functional; conditions: ATCC 27853, 24 h
[3] = test system: Staphylococcus epidermidis; assay: Antibacterial activity against Staphylococcus epidermidis after 24 hrs by broth dilution method; type: functional
Klebsiella pneumoniae [4] = assay: Antibacterial activity against Klebsiella pneumoniae after 24 hrs by broth dilution method; type: functional
Pseudomonas aeruginosa [5] = assay: Bactericidal activity against Pseudomonas aeruginosa ATCC 27853 incubated for 24 hrs followed by replating on Mueller-Hinton agar and further incubated for 24 hrs; type: functional; conditions: ATCC 27853, 24 h
Klebsiella pneumoniae [6] = assay: Bactericidal activity against Klebsiella pneumoniae incubated for 24 hrs followed by replating on Mueller-Hinton agar and further incubated for 24 hrs; type: functional
Staphylococcus aureus [7] = assay: Bactericidal activity against Staphylococcus aureus ATCC 29213 incubated for 24 hrs followed by replating on Mueller-Hinton agar and further incubated for 24 hrs; type: functional; conditions: ATCC 29213, 24 h
Staphylococcus aureus [8] = assay: Antibacterial activity against methicillin, cefoxytin, levfloxacin-resistant and erythromycin, clindamycin-senstitive Staphylococcus aureus after 24 hrs by broth dilution method; type: functional
Staphylococcus aureus [9] = assay: Antibacterial activity against methicillin, cefoxytin-resistant and levofloxacin, erythromycin, clindamycin-senstitive Staphylococcus aureus after 24 hrs by broth dilution method; type: functional
Staphylococcus aureus [10] = assay: Antibacterial activity against multidrug-resistant Staphylococcus aureus after 24 hrs by broth dilution method; type: functional
Pseudomonas aeruginosa [11] = assay: Antibacterial activity against multidrug-resistant Pseudomonas aeruginosa after 24 hrs by broth dilution method; type: functional
Pseudomonas aeruginosa [12] = assay: Antibacterial activity against ciprofloxacin, imipenem, meronem-resistant and cefepime, piperacillin-tazobactam-sensitive Pseudomonas aeruginosa after 24 hrs by broth dilution method; type: functional
Pseudomonas aeruginosa [13] = assay: Antibacterial activity against ciprofloxacin-resistant and multidrug-sensitive Pseudomonas aeruginosa after 24 hrs by broth dilution method; type: functional
Pseudomonas aeruginosa [14] = assay: Antibacterial activity against multidrug-sensitive Pseudomonas aeruginosa after 24 hrs by broth dilution method; type: functional
Klebsiella pneumoniae [15] = assay: Antibacterial activity against multidrug-sensitive Klebsiella pneumoniae after 24 hrs by broth dilution method; type: functional
Enterobacter cloacae = assay: Antibacterial activity against multidrug-resistant and sensitive Enterobacter cloacae after 24 hrs by broth dilution method; type: functional
Escherichia coli = assay: Antibacterial activity against multidrug-resistant and sensitive Escherichia coli after 24 hrs by broth dilution method; type: functional
[16] = Cytotoxicity against human HSF cells after 72 hrs by MTT assay; type: cell-based
[17] = Cytotoxicity against human HSF cells after 24 hrs by MTT assay; type: cell-based
Erythrocyte = assay: Hemolytic activity in human erythrocytes at >100 uM; type: ADME, cell-based
[18] = Aggregation property of the compound in DMEM culture medium at 1 mM after 1 hr by dynamic light scattering method; type: physicochemical; conditions: 1000 µM
Staphylococcus aureus [19] = assay: Drug interaction with Staphylococcus aureus cellular surface assessed as decrease in zeta potential at 1 mM treated for 1 hr followed by washing and measured by dynamic light scattering method; type: functional
Pseudomonas aeruginosa [20] = assay: Drug interaction with Pseudomonas aeruginosa cellular surface assessed as decrease in zeta potential at 1 mM treated for 1 hr followed by washing and measured by dynamic light scattering method; type: functional
Klebsiella pneumoniae [21] = assay: Ratio of MBC to MIC against Klebsiella pneumoniae; type: functional
Pseudomonas aeruginosa [22] = assay: Ratio of MBC to MIC against Pseudomonas aeruginosa ATCC 27853; type: functional
Staphylococcus aureus [23] = assay: Ratio of MBC to MIC against Staphylococcus aureus ATCC 29213; type: functional
[24] = Aggregation property of the compound assessed as mean hydrodynamic diameter at 1 mM after 1 hr by dynamic light scattering method; type: physicochemical; conditions: 1000 µM
Staphylococcus aureus [25] = assay: Inhibition of extracellular component secretion and matrix formation in Staphylococcus aureus assessed as induction of morphological changes at 1 uM by scanning electron microscopy; type: functional, organism-based
Staphylococcus aureus [26] = assay: Inhibition of extracellular component secretion and matrix formation in Staphylococcus aureus assessed as inhibition of polysaccharide matrix formation at 1 uM by scanning electron microscopy; type: functional, organism-based
Pseudomonas aeruginosa [27] = assay: Inhibition of extracellular component secretion and matrix formation in Pseudomonas aeruginosa assessed as induction of morphological changes at 1 uM by scanning electron microscopy; type: functional, organism-based
Pseudomonas aeruginosa [28] = assay: Inhibition of extracellular component secretion and matrix formation in Pseudomonas aeruginosa assessed as inhibition of polysaccharide matrix formation at 1 uM by scanning electron microscopy; type: functional, organism-based

CN[C@H](CC(C)C)C(=O)N[C@H]1C(=O)N[C@@H](CC(N)=O)C(=O)N[C@H]2C(=O)N[C@H]3C(=O)N[C@H](C(=O)N[C@H](C(=O)O)c4cc(O)cc(O)c4-c4cc3ccc4O)[C@H](O)c3ccc(c(Cl)c3)Oc3cc2cc(c3O[C@@H]2O[C@H](CO)[C@@H](O)[C@H](O)[C@H]2O[C@H]2C[C@](C)(N)[C@H](O)[C@H](C)O2)Oc2ccc(cc2Cl)[C@H]1O [VANCOMYCIN]
MIC (Staphylococcus aureus [1]): 1.4 µM (≈ 2.03 µg/mL)
MIC (Pseudomonas aeruginosa [2]): > 5000 µM
MIC [3]: 0.7 µM (≈ 1.01 µg/mL)
MIC (Klebsiella pneumoniae [4]): > 5000 µM

Cc1ccc(C(C)C)c(OP(=S)(S)Oc2cc(C)ccc2C(C)C)c1
MIC (Staphylococcus aureus [1]): 3800 µM (≈ 1500 µg/mL)
MIC (Pseudomonas aeruginosa [2]): 3800 µM (≈ 1500 µg/mL)
MIC [3]: 3800 µM (≈ 1500 µg/mL)
MIC (Klebsiella pneumoniae [4]): 3800 µM (≈ 1500 µg/mL)

CC(C)[C@@H]1CC[C@@H](C)C[C@H]1OP(=S)(S)O[C@@H]1C[C@H](C)CC[C@H]1C(C)C.CN1CCC[C@H]1c1cccnc1 [listing 1 of 2 here]
MIC (Staphylococcus aureus [1]): 20 µM
MIC (Pseudomonas aeruginosa [2]): 320 µM
MIC [3]: 20 µM
MIC (Klebsiella pneumoniae [4]): 320 µM
MBC (Pseudomonas aeruginosa [5]): 320 µM
MBC (Klebsiella pneumoniae [6]): 640 µM
MBC (Staphylococcus aureus [7]): 20 µM
MIC (Staphylococcus aureus [8]): 11 µM
MIC (Staphylococcus aureus [9]): 11 µM
MIC (Staphylococcus aureus [10]): 23 µM
MIC (Pseudomonas aeruginosa [11]): 360 µM
MIC (Pseudomonas aeruginosa [12]): 360 µM
MIC (Pseudomonas aeruginosa [13]): 360 µM
MIC (Pseudomonas aeruginosa [14]): 360 µM
MIC (Klebsiella pneumoniae [15]): 360 µM
MIC (Enterobacter cloacae): 360 µM
MIC (Escherichia coli): 360 µM
IC50 [16]: 57.6 µM
IC50 [17]: 81.3 µM
Activity (Erythrocyte): Toxic
Activity [18]: Active
fold change (FC) (Staphylococcus aureus [19]): 1.2
fold change (FC) (Pseudomonas aeruginosa [20]): 1.2
Ratio (Klebsiella pneumoniae [21]): 1
Ratio (Pseudomonas aeruginosa [22]): 1
Ratio (Staphylococcus aureus [23]): 1
Activity [24]: 141.7 nm

Cc1ccc(C(C)C)c(OP(=S)(S)Oc2cc(C)ccc2C(C)C)c1.NC(=O)c1cccnc1
MIC (Staphylococcus aureus [1]): 380 µM
MIC (Pseudomonas aeruginosa [2]): 380 µM
MIC [3]: 380 µM
MIC (Klebsiella pneumoniae [4]): 1500 µM

CN1CCC[C@H]1c1cccnc1.Cc1ccc(C(C)C)c(OP(=S)(S)Oc2cc(C)ccc2C(C)C)c1
MIC (Staphylococcus aureus [1]): 320 µM
MIC (Pseudomonas aeruginosa [2]): 320 µM
MIC [3]: 320 µM
MIC (Klebsiella pneumoniae [4]): 2530 µM

CC1(C)[C@H]2CC[C@]1(C)[C@H](OP(=S)(S)O[C@@H]1C[C@@H]3CC[C@@]1(C)C3(C)C)C2.CN1CCC[C@H]1c1cccnc1
MIC (Staphylococcus aureus [1]): 20 µM
MIC (Pseudomonas aeruginosa [2]): 320 µM
MIC [3]: 20 µM
MIC (Klebsiella pneumoniae [4]): 320 µM

CCCCOP(=S)(S)OCCCC.CN1CCC[C@H]1c1cccnc1
MIC (Staphylococcus aureus [1]): 1810 µM
MIC (Pseudomonas aeruginosa [2]): 3630 µM
MIC [3]: 1810 µM
MIC (Klebsiella pneumoniae [4]): 3630 µM

C[C@@H]1[C@@H](OP(=S)(S)O[C@H]2C[C@H]3C[C@@H]([C@@H]2C)C3(C)C)C[C@H]2C[C@@H]1C2(C)C.NC(=O)c1cccnc1
MIC (Staphylococcus aureus [1]): 300 µM
MIC (Pseudomonas aeruginosa [2]): 4780 µM
MIC [3]: 300 µM
MIC (Klebsiella pneumoniae [4]): 4780 µM

CC1(C)[C@H]2CC[C@]1(C)[C@H](OP(=S)(S)O[C@@H]1C[C@@H]3CC[C@@]1(C)C3(C)C)C2
MIC (Staphylococcus aureus [1]): 6210 µM (≈ 2500 µg/mL)
MIC (Pseudomonas aeruginosa [2]): 6210 µM (≈ 2500 µg/mL)
MIC [3]: 6210 µM (≈ 2500 µg/mL)
MIC (Klebsiella pneumoniae [4]): 6210 µM (≈ 2500 µg/mL)

CN1CCC[C@H]1c1cccnc1.C[C@@H]1[C@@H](OP(=S)(S)O[C@H]2C[C@H]3C[C@@H]([C@@H]2C)C3(C)C)C[C@H]2C[C@@H]1C2(C)C
MIC (Staphylococcus aureus [1]): 20 µM
MIC (Pseudomonas aeruginosa [2]): 320 µM
MIC [3]: 20 µM
MIC (Klebsiella pneumoniae [4]): 320 µM

Cc1ccc(C(C)C)c(OP(=S)(S)Oc2cc(C)ccc2C(C)C)c1.Cc1ncc(CO)c(CO)c1O
MIC (Staphylococcus aureus [1]): 530 µM
MIC (Pseudomonas aeruginosa [2]): 530 µM
MIC [3]: 530 µM
MIC (Klebsiella pneumoniae [4]): 530 µM

CCCCOP(=S)(S)OCCCC.NC(=O)c1cccnc1
MIC (Staphylococcus aureus [1]): 4130 µM
MIC (Pseudomonas aeruginosa [2]): 4130 µM
MIC [3]: 4130 µM
MIC (Klebsiella pneumoniae [4]): 4130 µM

CC1(C)[C@H]2CC[C@](C)(C2)[C@H]1OP(=S)(S)O[C@H]1C(C)(C)[C@H]2CC[C@]1(C)C2
MIC (Staphylococcus aureus [1]): 240 µM (≈ 96.6 µg/mL)
MIC (Pseudomonas aeruginosa [2]): 1940 µM (≈ 781 µg/mL)
MIC [3]: 240 µM (≈ 96.6 µg/mL)
MIC (Klebsiella pneumoniae [4]): 1940 µM (≈ 781 µg/mL)

CC1(C)[C@H]2CC[C@](C)(C2)[C@H]1OP(=S)(S)O[C@H]1C(C)(C)[C@H]2CC[C@]1(C)C2.Cc1ncc(CO)c(CO)c1O
MIC (Staphylococcus aureus [1]): 20 µM
MIC (Pseudomonas aeruginosa [2]): 320 µM
MIC [3]: 20 µM
MIC (Klebsiella pneumoniae [4]): 320 µM

C[C@@H]1[C@@H](OP(=S)(S)O[C@H]2C[C@H]3C[C@@H]([C@@H]2C)C3(C)C)C[C@H]2C[C@@H]1C2(C)C.Cc1ncc(CO)c(CO)c1O
MIC (Staphylococcus aureus [1]): 20 µM
MIC (Pseudomonas aeruginosa [2]): 320 µM
MIC [3]: 20 µM
MIC (Klebsiella pneumoniae [4]): 320 µM

CC(C)[C@H]1CC[C@H](C)C[C@@H]1OP(=S)(S)O[C@H]1C[C@@H](C)CC[C@@H]1C(C)C.Cc1ncc(CO)c(CO)c1O
MIC (Staphylococcus aureus [1]): 40 µM
MIC (Pseudomonas aeruginosa [2]): 320 µM
MIC [3]: 10 µM
MIC (Klebsiella pneumoniae [4]): 320 µM

CC(C)[C@@H]1CC[C@@H](C)C[C@H]1OP(=S)(S)O[C@@H]1C[C@H](C)CC[C@H]1C(C)C.CN1CCC[C@H]1c1cccnc1 [listing 2 of 2 here]
Activity (Staphylococcus aureus [25]): Active
Activity (Staphylococcus aureus [26]): Active
Activity (Pseudomonas aeruginosa [27]): Active
Activity (Pseudomonas aeruginosa [28]): Active

CC(C)[C@@H]1CC[C@@H](C)C[C@H]1OP(=S)(S)O[C@@H]1C[C@H](C)CC[C@H]1C(C)C.Cc1ncc(CO)c(CO)c1O
MIC (Staphylococcus aureus [1]): 20 µM
MIC (Pseudomonas aeruginosa [2]): 320 µM
MIC [3]: 10 µM
MIC (Klebsiella pneumoniae [4]): 320 µM
MBC (Pseudomonas aeruginosa [5]): 320 µM
MBC (Klebsiella pneumoniae [6]): 640 µM
MBC (Staphylococcus aureus [7]): 40 µM
MIC (Staphylococcus aureus [8]): 20 µM
MIC (Staphylococcus aureus [9]): 20 µM
MIC (Staphylococcus aureus [10]): 20 µM
MIC (Pseudomonas aeruginosa [11]): 323 µM
MIC (Pseudomonas aeruginosa [12]): 323 µM
MIC (Pseudomonas aeruginosa [13]): 323 µM
MIC (Pseudomonas aeruginosa [14]): 323 to 647 µM
MIC (Klebsiella pneumoniae [15]): 323 µM
MIC (Enterobacter cloacae): 323 µM
MIC (Escherichia coli): 323 µM
IC50 [16]: 48.6 µM
IC50 [17]: 92.2 µM
Activity (Erythrocyte): Toxic
Activity [18]: Active
fold change (FC) (Staphylococcus aureus [19]): 1.2
fold change (FC) (Pseudomonas aeruginosa [20]): 1.2
Ratio (Klebsiella pneumoniae [21]): 2
Ratio (Pseudomonas aeruginosa [22]): 2
Ratio (Staphylococcus aureus [23]): 2
Activity [24]: 108.9 nm

C[C@@H]1[C@@H](OP(=S)(S)O[C@H]2C[C@H]3C[C@@H]([C@@H]2C)C3(C)C)C[C@H]2C[C@@H]1C2(C)C
MIC (Staphylococcus aureus [1]): 390 µM (≈ 157 µg/mL)
MIC (Pseudomonas aeruginosa [2]): 1560 µM (≈ 628 µg/mL)
MIC [3]: 190 µM (≈ 76.5 µg/mL)
MIC (Klebsiella pneumoniae [4]): 3110 µM (≈ 1250 µg/mL)

CC(C)[C@H]1CC[C@H](C)C[C@@H]1OP(=S)(S)O[C@H]1C[C@@H](C)CC[C@@H]1C(C)C.CN1CCC[C@H]1c1cccnc1
MIC (Staphylococcus aureus [1]): 20 µM
MIC (Pseudomonas aeruginosa [2]): 320 µM
MIC [3]: 20 µM
MIC (Klebsiella pneumoniae [4]): 320 µM
